Measured values as given in patent EP0075029A1, “AGENT FOR TREATING CHRONIC OBLITERATIVE LUNG DISEASE” (priority 1981, dated 1982).
Counter-ions that a name gives are not always drawn.

Columns and labels:
[1] = test system: blood-perfused trachea in situ; assay: Blood-perfused trachea in situ (Himori and Taira): tracheal blood flow and inside pressure of the trachea; assay type: in vivo; settings: intraarterial injection, dogs
Source text: The cervix of each dog was medisected to expose the pharynx and the upper part of the trachea.
The blood was introduced from the femoral artery by a peristaltic pump, and a part of the blood stream was by-passed to the downstream of the femoral artery through a Starling's air resistance tube provided parallel to the vascular bed of the trachea, thereby performing the perfusion under a constant pressure. The pressure of the perfusion was kept a little higher than the mean aortic blood pressure.
On the other hand, water was placed into the cuff of a tracheal tube equipped with a cuff, and the tube was inserted into the trachea. Then, the inside pressure of the cuff was measured by a pressure transducer to determine the inside pressure of the trachea as follows. Initially, water was placed in the cuff in such a manner that the static inside pressure of the trachea was about 40 cm H20. During the experiment, the tonus (the inside pressure of the trachea) of the tracheal smooth muscles in stationary phases was maintained by continuous intraarterial injections of 3 pg each of neostigmine into the vascular bed of the trachea at 30-minute intervals.
As an index of the selectivity of the dilating activity for trachea, the ratio of the increase of the blood flow in the trachea to the decrease of the inside pressure of the trachea was determined.

bronchi in situ = assay: animal or person; settings: Canis lupus familiaris, iv, read-out: Percent inhibition
Method: The experiment was carried out in accordance with the Konzett-R6essler's method [Konzett, H. and Roessler, R: Arch. Exp. Pathol.
Six mongrel adult dogs were anesthetized with pentobarbital sodium (30 mg/kg). A tracheal cannula was inserted, and under artificial respiration, holes were incised in the right and left pleurae to equalize the pressure of the pleural cavity to the atmospheric pressure. The amount of air which overflowed by inspiration against a pressure of 10±1 cm H20 applied from the branch of the cannula was measured by a pneumotachograph.

Row | SMILES | effect on blood flow in the trachea and inside pressure of the trachea [1] | inhibition at 3 mg/kg (bronchi in situ) [%]
1 | Cn1c(=O)c2[nH]cnc2n(C)c1=O [Theophylline, theophylline] | increased the blood flow in the trachea and reduced the inside pressure of the trachea in a dose dependent manner | 56
2 | CC(C)NCC(O)c1ccc(O)c(O)c1 (single isomer, unassigned; (-)) [isoproterenol, (-) isoproterenol hydrochloride] | increased the blood flow in the trachea and reduced the inside pressure of the trachea in a dose dependent manner | –
